The source of these data is patent US20150320709A1, “METHODS AND COMPOSITIONS FOR FACILITATING WEIGHT LOSS BY ADMINISTRATION OF THYROID HORMONES” (priority 2011, published 2015).

Common to all, as to type: in vivo, human
Assay [1] is described as follows: Blood pressure and pulse of weight loss program patients on thyroid hormone treatment. As for the experimental part:
(§1) The first patient example is a person, 5′2″, weight 268 lbs, body mass index (BMI) 49 (nl 19-24; overweight 25-29; obesity≧30). Baseline blood pressure was 110/74, blood sugar (BS) was 153 mg/dL 10 days after their first visit. Their medical problems at baseline included obesity, type 2 diabetes mellitus (DM2), high blood pressure (HTN), fatigue, depression, and asthma. Their medications included glipizide 10 mg daily, amitriptyline 50 mg daily, metoprolol 50 mg daily, furosemide 40 mg daily, potassium chloride, lisinopril 10 mg daily, Advair Discus 500/50 twice daily (bid), and montelukast 10 mg daily. They were started on our comprehensive program. Five months after starting their weight loss treatment, they developed symptoms of hypothyroidism with constipation and fatigue. They had lost 28 lbs by this time and was having difficulty losing more weight even though they were eating less than they were before their weight loss treatment began. At the start of treatment, their FT4 was 0.9 ng/dL (nl 0.7-1.48). At the time of their low thyroid symptoms, their FT3 was 2.9 pg/mL (nl 1.71-3.71) and their FT4 was 0.91 ng/dL (nl 0.7-1.48). They were then treated with thyroid hormone (desiccated thyroid with a ratio of T4:T3 of about 4:1) at 60 mg daily for 6 days to acclimate, then increased to 120 mg daily. […] After two years on their weight loss treatment, their weight was 231 lbs. […] We tested for rT3 at this point. Their labs on the 150 mg dose of desiccated thyroid were: rT3 394 pg/mL (nl 90-350), FT3 3.94 pg/mL (nl 1.71-3.71), and FT4 1.24 ng/dL (nl 0.7-1.48). The task of bringing down their rT3 was then addressed. Over a period of a few months, their desiccated thyroid hormone was discontinued and instead the patient was given gradually increasing doses of T3 only, starting at 20 mcg daily and gradually increasing the T3 to 60 mcg bid. Five months after starting on T3 with increasing doses, their weight had dropped to 209 lbs. Their BP was 118/66 mmHg with pulse of 74 on lisinopril 10 mg daily, metoprolol 50 mg bid, and furosemide 40 mg daily. Instead of glipizide, they were taking metformin 500 mg bid. […] Their most recent labs on 60 mcg bid of T3 were FT3 3.8 pg/mL (nl 1.71-3.71), FT4 0.64 ng/dL (nl 0.7-1.48) and rT3 137 pg/mL (nl 90-350). Four months prior to this visit their BS was 125 mg/dl.
(§2) The second patient example is a person, 5′2″, weight 150 lbs, BMI 28 (nl 18.5-24.9; overweight 25-29.9; obesity≧30), with HTN. Their blood pressure was slightly elevated at 148/85 (on lisinopril 5 mg daily). Their medical problems at baseline included history of Hashimoto's thyroiditis, borderline high TSH, elevated lipids, and HTN. Their medications were lisinopril 5 mg daily, estradiol 2 mg daily, and rofecoxib 25 mg daily for osteoarthritis of their large joints. […]

Assay [2] is described as follows: Low thyroid symptoms / clinical status of weight loss program patients on thyroid hormone treatment. On the procedure:
as §1, §2

Assay in assay [3]: as above
The conditions noted are these: for reported symptoms: Patient Example 4.

The nature of assay [4]: Body weight of weight loss program patients on thyroid hormone treatment. On the procedure: The first patient example is a person, 5′2″, weight 268 lbs, body mass index (BMI) 49 (nl 19-24; overweight 25-29; obesity≧30). Baseline blood pressure was 110/74, blood sugar (BS) was 153 mg/dL 10 days after their first visit. Their medical problems at baseline included obesity, type 2 diabetes mellitus (DM2), high blood pressure (HTN), fatigue, depression, and asthma. Their medications included glipizide 10 mg daily, amitriptyline 50 mg daily, metoprolol 50 mg daily, furosemide 40 mg daily, potassium chloride, lisinopril 10 mg daily, Advair Discus 500/50 twice daily (bid), and montelukast 10 mg daily. They were started on our comprehensive program. Five months after starting their weight loss treatment, they developed symptoms of hypothyroidism with constipation and fatigue. They had lost 28 lbs by this time and was having difficulty losing more weight even though they were eating less than they were before their weight loss treatment began. At the start of treatment, their FT4 was 0.9 ng/dL (nl 0.7-1.48). At the time of their low thyroid symptoms, their FT3 was 2.9 pg/mL (nl 1.71-3.71) and their FT4 was 0.91 ng/dL (nl 0.7-1.48). They were then treated with thyroid hormone (desiccated thyroid with a ratio of T4:T3 of about 4:1) at 60 mg daily for 6 days to acclimate, then increased to 120 mg daily. […] After two years on their weight loss treatment, their weight was 231 lbs. […]

Where [5] appears, read: Patient Example 1, on T3 only, with lisinopril, metoprolol, furosemide.
Setting [6] is: Patient Example 2, T3 only, 25 mcg bid.

For the compound `N[C@@H](Cc1cc(I)c(Oc2ccc(O)c(I)c2)c(I)c1)C(=O)O` [T3, (2S)-2-amino-3-[4-(4-hydroxy-3-iodo-phenoxy)-3,5-diiodo-phenyl]propanoic acid], the BP in assay [1] (setting [5]) is listed as 118/66; in assay [1] (Patient Example 2, T3 only, 25 mcg bid, on no medications), 122/80. Further, the pulse in assay [1] (setting [5]) was 74; in assay [1] (setting [6]), 72. In assay [2] (Patient Example 1, on T3 only), the clinical thyroid status result was “clinically euthyroid”. The lipids result in assay [2] (setting [6]) was “improved compared to baseline”. The low thyroid symptoms entry is recorded as “no longer suffered from hair loss; their bowels were normal, they felt well” in assay [2] (setting [6]) and “low thyroid symptoms returned” in assay [3] (Patient Example 3, T3 25 mcg t.i.d. alone, about a week after stopping desiccated thyroid). Besides, the reported symptoms entry in assay [3] (T3 50 mcg 2 PO q am and 1 PO 8-10 hours later, initial visit) is “feeling cold, hair loss and nail peeling”; in assay [3] (same T3 dose (not decreased), over 6 weeks later), “continued to report suffering from fatigue and coldness”. For the same compound, the weight in assay [4] (Patient Example 1, five months after starting T3 only, 20 mcg daily increasing to 60 mcg bid) is on record as 209 lbs; in assay [4] (setting [6]), 125 lbs.
